Measurements as given in US20220009931A1, “NOVEL UREA 6,7-DIHYDRO-4H-PYRAZOLO[1,5-A]PYRAZINES ACTIVE AGAINST THE HEPATITIS B VIRUS (HBV)” (AICURIS GMBH & CO. KG, priority 2018, published 2022).

Test system: HBV
Conditions: Hepatitis B virus, HePAD38, 144 h, read-out: Cell Activity

SMILES	EC50
O=C(Nc1ccc(F)c(Cl)c1)N1CCn2nc(NC3CCOC3)cc2C1 (centres unmarked) [Example 1, N-(3-chloro-4-fluorophenyl)-2-[(oxolan-3-yl)amino]-4H,5H,6H,7H-pyrazolo[1,5-a]pyrazine-5-carboxamide]	1000 to 10000 nM
O=C(Nc1ccc(F)c(Cl)c1)N1CCn2nc(NC3CCC(O)CC3)cc2C1 (centres unmarked) [Example 2, N-(3-chloro-4-fluorophenyl)-2-[(4-hydroxycyclohexyl)amino]-4H,5H,6H,7H-pyrazolo[1,5-a]pyrazine-5-carboxamide]	< 1000 nM
CC1Cn2nc(NC(=O)C3CCOC3)cc2CN1C(=O)Nc1ccc(F)c(Cl)c1 (centres unmarked) [Example 3, N-(3-chloro-4-fluorophenyl)-6-methyl-2-(oxolane-3-amido)-4H,5H,6H,7H-pyrazolo[1,5-a]pyrazine-5-carboxamide]	< 1000 nM
CC1Cn2nc(NCC3CCOC3)cc2CN1C(=O)Nc1ccc(F)c(Cl)c1 (centres unmarked) [Example 4]	1000 to 10000 nM
CC(=O)Nc1cc2n(n1)CCN(C(=O)Nc1ccc(F)c(Cl)c1)C2 [Example 5, N-(3-chloro-4-fluorophenyl)-2-acetamido-4H,5H,6H,7H-pyrazolo[1,5-a]pyrazine-5-carboxamide]	< 1000 nM
O=C(Nc1ccc(F)c(Cl)c1)N1CCn2nc(NCC3CCOCC3)cc2C1 [Example 6, N-(3-chloro-4-fluorophenyl)-2-{[(oxan-4-yl)methyl]amino}-4H,5H,6H,7H-pyrazolo[1,5-a]pyrazine-5-carboxamide]	1000 to 10000 nM
CC1Cn2nc(N)cc2CN1C(=O)Nc1ccc(F)c(Cl)c1 (centres unmarked) [Example 7, 2-amino-N-(3-chloro-4-fluorophenyl)-6-methyl-4H,5H,6H,7H-pyrazolo[1,5-a]pyrazine-5-carboxamide]	1000 to 10000 nM
O=C(Nc1cc2n(n1)CCN(C(=O)Nc1ccc(F)c(Cl)c1)C2)C1CCOCC1 [Example 8, N-(3-chloro-4-fluorophenyl)-2-(oxane-4-amido)-4H,5H,6H,7H-pyrazolo[1,5-a]pyrazine-5-carboxamide]	< 1000 nM
O=C(Nc1cc2n(n1)CCN(C(=O)Nc1ccc(F)c(Cl)c1)C2)C1CCOC1 (centres unmarked) [Example 9, N-(3-chloro-4-fluorophenyl)-2-(oxolane-3-amido)-4H,5H,6H,7H-pyrazolo[1,5-a]pyrazine-5-carboxamide]	< 1000 nM
O=C(Nc1ccc(F)c(Cl)c1)N1CCn2nc(NCC3CCOC3)cc2C1 (centres unmarked) [Example 10, N-(3-chloro-4-fluorophenyl)-2-{[(oxolan-3-yl)methyl]amino}-4H,5H,6H,7H-pyrazolo[1,5-a]pyrazine-5-carboxamide]	1000 to 10000 nM
COCC1(S(=O)(=O)Nc2cc3n(n2)CCN(C(=O)Nc2ccc(F)c(Cl)c2)C3)CC1 [Example 11, N-(3-chloro-4-fluorophenyl)-2-[1-(methoxymethyl)cyclopropanesulfonamido]-4H,5H,6H,7H-pyrazolo[1,5-a]pyrazine-5-carboxamide]	< 1000 nM
O=C(Nc1ccc(F)c(Cl)c1)N1CCn2nc(NS(=O)(=O)C3CC3)cc2C1 [Example 12, N-(3-chloro-4-fluorophenyl)-2-cyclopropanesulfonamido-4H,5H,6H,7H-pyrazolo[1,5-a]pyrazine-5-carboxamide]	< 1000 nM
O=C(Nc1ccc(F)c(Cl)c1)N1CCn2nc(NS(=O)(=O)C3(CO)CC3)cc2C1 [Example 13, N-(3-chloro-4-fluorophenyl)-2-[1-(hydroxymethyl)cyclopropanesulfonamido]-4H,5H,6H,7H-pyrazolo[1,5-a]pyrazine-5-carboxamide]	< 1000 nM
O=C(Nc1ccc(F)cc1)N1CCn2nc(NS(=O)(=O)C3(CO)CC3)cc2C1 [Example 14, N-(4-fluorophenyl)-2-[1-(hydroxymethyl)cyclopropanesulfonamido]-4H,5H,6H,7H-pyrazolo[1,5-a]pyrazine-5-carboxamide]	< 100000 nM
COCC1(CNc2cc3n(n2)CCN(C(=O)Nc2ccc(F)c(Cl)c2)C3)CC1 [Example 15, N-(3-chloro-4-fluorophenyl)-2-({[1-(methoxymethyl)cyclopropyl]methyl}amino)-4H,5H,6H,7H-pyrazolo[1,5-a]pyrazine-5-carboxamide]	< 1000 nM
O=C(Nc1ccc(F)c(Cl)c1)N1CCn2nc(NCC3CCCOC3)cc2C1 (centres unmarked) [Example 16, N-(3-chloro-4-fluorophenyl)-2-{[(oxan-3-yl)methyl]amino}-4H,5H,6H,7H-pyrazolo[1,5-a]pyrazine-5-carboxamide]	1000 to 10000 nM
CC(C)(CO)CNc1cc2n(n1)CCN(C(=O)Nc1ccc(F)c(Cl)c1)C2 [Example 17, N-(3-chloro-4-fluorophenyl)-2-[(3-hydroxy-2,2-dimethylpropyl)amino]-4H,5H,6H,7H-pyrazolo[1,5-a]pyrazine-5-carboxamide]	< 1000 nM
COC1(CNc2cc3n(n2)CCN(C(=O)Nc2ccc(F)c(Cl)c2)C3)CCC1 [Example 18, N-(3-chloro-4-fluorophenyl)-2-{[(1-methoxycyclobutyl)methyl]amino}-4H,5H,6H,7H-pyrazolo[1,5-a]pyrazine-5-carboxamide]	< 1000 nM

SMILES	EC50
COC1CCC(Nc2cc3n(n2)CCN(C(=O)Nc2ccc(F)c(Cl)c2)C3)CC1 (centres unmarked) [Example 19, N-(3-chloro-4-fluorophenyl)-2-[(4-methoxycyclohexyl)amino]-4H,5H,6H,7H-pyrazolo[1,5-a]pyrazine-5-carboxamide]	< 1000 nM
CC1(CNc2cc3n(n2)CCN(C(=O)Nc2ccc(F)c(Cl)c2)C3)CCOC1 (centres unmarked) [Example 20, N-(3-chloro-4-fluorophenyl)-2-{[(3-methyloxolan-3-yl)methyl]amino}-4H,5H,6H,7H-pyrazolo[1,5-a]pyrazine-5-carboxamide]	< 1000 nM
O=C(Nc1ccc(F)c(Cl)c1)N1CCn2nc(NCC3(CO)CCC3)cc2C1 [Example 21, N-(3-chloro-4-fluorophenyl)-2-({[1-(hydroxymethyl)cyclobutyl]methyl}amino)-4H,5H,6H,7H-pyrazolo[1,5-a]pyrazine-5-carboxamide]	< 1000 nM
CCC(C)(CO)CNc1cc2n(n1)CCN(C(=O)Nc1ccc(F)c(Cl)c1)C2 (centres unmarked) [Example 22, N-(3-chloro-4-fluorophenyl)-2-[(2-ethyl-3-hydroxy-2-methylpropyl)amino]-4H,5H,6H,7H-pyrazolo[1,5-a]pyrazine-5-carboxamide]	< 1000 nM
CC(CO)CNc1cc2n(n1)CCN(C(=O)Nc1ccc(F)c(Cl)c1)C2 (centres unmarked) [Example 23, N-(3-chloro-4-fluorophenyl)-2-[(3-hydroxy-2-methylpropyl)amino]-4H,5H,6H,7H-pyrazolo[1,5-a]pyrazine-5-carboxamide]	1000 to 10000 nM
CC(C)OC1(CNc2cc3n(n2)CCN(C(=O)Nc2ccc(F)c(Cl)c2)C3)CCC1 [Example 24, N-(3-chloro-4-fluorophenyl)-2-({[1-(propan-2-yloxy)cyclobutyl]methyl}amino)-4H,5H,6H,7H-pyrazolo[1,5-a]pyrazine-5-carboxamide]	1000 to 10000 nM
COC1(CNc2cc3n(n2)CCN(C(=O)Nc2ccc(F)c(Cl)c2)C3)CCOC1 (centres unmarked) [Example 25, N-(3-chloro-4-fluorophenyl)-2-{[(3-methoxyoxolan-3-yl)methyl]amino}-4H,5H,6H,7H-pyrazolo[1,5-a]pyrazine-5-carboxamide]	1000 to 10000 nM
CC(Nc1cc2n(n1)CCN(C(=O)Nc1ccc(F)c(Cl)c1)C2)C1CCOC1 (centres unmarked) [Example 26, N-(3-chloro-4-fluorophenyl)-2-{[1-(oxolan-3-yl)ethyl]amino}-4H,5H,6H,7H-pyrazolo[1,5-a]pyrazine-5-carboxamide]	1000 to 10000 nM
O=C(Nc1ccc(F)c(Cl)c1)N1CCn2nc(NC3(c4ccccc4)CC3)cc2C1 [Example 27, N-(3-chloro-4-fluorophenyl)-2-[(1-phenylcyclopropyl)amino]-4H,5H,6H,7H-pyrazolo[1,5-a]pyrazine-5-carboxamide]	< 1000 nM
O=C(Nc1cc2n(n1)CCN(C(=O)Nc1ccc(F)c(Cl)c1)C2)C1CCN(c2ccncc2)CC1 [Example 28, N-{5-[(3-chloro-4-fluorophenyl)carbamoyl]-4H,5H,6H,7H-pyrazolo[1,5-a]pyrazin-2-yl}-1-(pyridin-4-yl)piperidine-4-carboxamide]	< 1000 nM
O=C(Nc1cc2n(n1)CCN(C(=O)Nc1ccc(F)c(Cl)c1)C2)C1CCNC(C(F)(F)F)C1 (centres unmarked) [Example 29, N-{5-[(3-chloro-4-fluorophenyl)carbamoyl]-4H,5H,6H,7H-pyrazolo[1,5-a]pyrazin-2-yl}-2-(trifluoromethyl)piperidine-4-carboxamide]	< 1000 nM
COC(=O)N1CCC(C(=O)Nc2cc3n(n2)CCN(C(=O)Nc2ccc(F)c(Cl)c2)C3)CC1 [Example 30, methyl 4-({5-[(3-chloro-4-fluorophenyl)carbamoyl]-4H,5H,6H,7H-pyrazolo[1,5-a]pyrazin-2-yl}carbamoyl)piperidine-1-carboxylate]	< 1000 nM
O=C(Nc1cc2n(n1)CCN(C(=O)Nc1ccc(F)c(Cl)c1)C2)C1CCN(C2CC2)CC1 [Example 31, N-{5-[(3-chloro-4-fluorophenyl)carbamoyl]-4H,5H,6H,7H-pyrazolo[1,5-a]pyrazin-2-yl}-1-cyclopropylpiperidine-4-carboxamide]	< 1000 nM
O=C(Nc1ccc(F)c(Cl)c1)N1CCn2nc(NC3(CO)CCC3)cc2C1 [Example 32, N-(3-chloro-4-fluorophenyl)-2-{[1-(hydroxymethyl)cyclobutyl]amino}-4H,5H,6H,7H-pyrazolo[1,5-a]pyrazine-5-carboxamide]	< 1000 nM
O=C(Nc1ccc(F)c(Cl)c1)N1CCn2nc(NCC3(O)CCC3)cc2C1 [Example 33, N-(3-chloro-4-fluorophenyl)-2-{[(1-hydroxycyclobutyl)methyl]amino}-4H,5H,6H,7H-pyrazolo[1,5-a]pyrazine-5-carboxamide]	< 1000 nM
O=C(Nc1ccc(F)c(Cl)c1)N1CCn2nc(N[C@@H]3CCC[C@H](O)C3)cc2C1 [Example 34, N-(3-chloro-4-fluorophenyl)-2-{[(1R,3S)-3-hydroxycyclohexyl]amino}-4H,5H,6H,7H-pyrazolo[1,5-a]pyrazine-5-carboxamide]	1000 to 10000 nM
O=C(Nc1ccc(F)c(Cl)c1)N1CCn2nc(N[C@H]3CC[C@H](O)CC3)cc2C1 [Example 35, N-(3-chloro-4-fluorophenyl)-2-{[(1r,4r)-4-hydroxycyclohexyl]amino}-4H,5H,6H,7H-pyrazolo[1,5-a]pyrazine-5-carboxamide]	1000 to 10000 nM
